Test results reported in ChEMBL document CHEMBL1138285, “Structure-activity relationships of adenosines with heterocyclic N6-substituents” (Bioorg Med Chem Lett, 2007).

Tests used:
[1] = target: Adenosine receptor A2a (Rattus norvegicus) (UniProt P30543); experiment: Displacement of [3H]ZM-241385 from adenosine A2A receptor expressed in PC12 cell membrane
[2] = system: Adenosine receptor A1 (Mesocricetus auratus); experiment: Intrinsic activity at adenosine A1 receptor expressed in DDT1 MF2 cells assessed as maximal inhibition of (-)-isoproterenol-stimulated cAMP accumulation
Homo sapiens = organism: Homo sapiens; experiment: Selectivity for adenosine A1 receptor over adenosine A2A receptor

Adenosine receptor A2a (Rattus norvegicus), sequence (P30543 whole entry, looked up): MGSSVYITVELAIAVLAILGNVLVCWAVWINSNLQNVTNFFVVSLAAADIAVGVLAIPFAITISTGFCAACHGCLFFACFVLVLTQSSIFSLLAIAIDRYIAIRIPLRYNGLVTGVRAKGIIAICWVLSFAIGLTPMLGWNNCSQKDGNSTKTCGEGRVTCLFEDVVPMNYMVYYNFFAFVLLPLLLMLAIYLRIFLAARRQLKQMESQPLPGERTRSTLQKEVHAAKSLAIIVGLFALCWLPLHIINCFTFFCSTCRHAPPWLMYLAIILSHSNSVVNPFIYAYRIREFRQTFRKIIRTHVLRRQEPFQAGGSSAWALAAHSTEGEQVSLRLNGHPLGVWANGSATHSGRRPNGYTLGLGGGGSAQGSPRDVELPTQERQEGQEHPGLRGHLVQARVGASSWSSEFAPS

SMILES | Ki [1] | Intrinsic activity [2] | Ratio Ki (Homo sapiens)
OC[C@H]1O[C@@H](n2cnc3c(NC4CC5CCC4N5)ncnc32)[C@H](O)[C@@H]1O (stereo not given in full) | 7.8 µM | – | –
CC(C)(C)OC(=O)N1[C@H]2CC[C@H]1[C@H](Nc1ncnc3c1ncn3[C@@H]1O[C@H](CO)[C@@H](O)[C@H]1O)C2 | 34.7 µM | 1.01 | –
O=C(OCc1ccccc1)N1CC[C@@H](Nc2ncnc3c2ncn3[C@@H]2O[C@H](CO)[C@@H](O)[C@H]2O)C1 | > 100 µM | – | –
OC[C@H]1O[C@@H](n2cnc3c(N[C@@H]4CCOC4)ncnc32)[C@H](O)[C@@H]1O [TECADENOSON] | > 100 µM | – | –
OC[C@H]1O[C@@H](n2cnc3c(N[C@@H]4CC[Se]C4)ncnc32)[C@H](O)[C@@H]1O | 5.5 µM | – | –

Second part, the molecule after the results:

Ki [1] | Intrinsic activity [2] | Ratio Ki (Homo sapiens) | SMILES
9.7 µM | – | – | OC[C@H]1O[C@@H](n2cnc3c(N[C@@H]4CCSC4)ncnc32)[C@H](O)[C@@H]1O
> 100 µM | – | – | O=C(OCc1ccccc1Cl)N1[C@H]2CC[C@H]1[C@H](Nc1ncnc3c1ncn3[C@@H]1O[C@H](CO)[C@@H](O)[C@H]1O)C2
> 100 µM | – | – | CC(=O)N1CC[C@@H](Nc2ncnc3c2ncn3[C@@H]2O[C@H](CO)[C@@H](O)[C@H]2O)C1
> 100 µM | 0.99 | > 4700 | CC(C)(C)OC(=O)N1CC[C@@H](Nc2ncnc3c2ncn3[C@@H]2O[C@H](CO)[C@@H](O)[C@H]2O)C1
> 100 µM | 0.97 | – | O=C(OCc1ccccc1Br)N1[C@H]2CC[C@H]1[C@H](Nc1ncnc3c1ncn3[C@@H]1O[C@H](CO)[C@@H](O)[C@H]1O)C2
> 100 µM | – | – | O=C(OCc1ccccc1)N1[C@H]2CC[C@H]1[C@H](Nc1ncnc3c1ncn3[C@@H]1O[C@H](CO)[C@@H](O)[C@H]1O)C2
